Each structure is given as a SMILES string.

In test [1] the target is BRD4 (BDI_K57-E168) (Homo sapiens, UniProt O60885). The test can be described thus: TR-FRET bromodomain binding assay, BRD4 first bromodomain (BDI). The settings on record: mean Ki; 12 nM His tagged BRD4 (BDI_K57-E168), 100 nM Alexa647 probe; Ki calculated from IC50, probe Kd and probe concentration. As to the method:
A time-resolved fluorescence resonance energy transfer (TR-FRET) assay was used to determine the affinities of compounds of the Examples listed in Table 1 for each bromodomain of BRD4. […] An Alexa647-labeled BET-inhibitor was used as the fluorescent probe in the assay.
Compound dilution series were prepared in DMSO via an approximately 3-fold serial dilution. Compound dilutions were added directly into white, low-volume assay plates (Perkin Elmer Proxiplate 384 Plus# 6008280) using a Labcyte Echo in conjunction with Labcyte Access and Thermo Multidrop CombinL robotics. Compounds were then suspended in eight microliters (μL) of assay buffer (20 mM Sodium Phosphate, pH 6.0, 50 mM NaCl, 1 mM Ethylenediaminetetraacetic acid disodium salt dihydrate, 0.01% Triton X-100, 1 mM DL-Dithiothreitol) containing His-tagged bromodomain, Europium-conjugated anti-His antibody (Invitrogen PV5596) and Alexa-647-conjugated probe.
After a one-hour equilibration at room temperature, TR-FRET ratios were determined using an Envision multilabel plate reader (Ex 340, Em 495/520).
TR-FRET data were normalized to the means of 24 no-compound controls (“high”) and 8 controls containing 1 μM un-labeled probe (“low”). Percent inhibition was plotted as a function of compound concentration and the data were fit with the 4 parameter logistic equation to obtain IC50s. Inhibition constants (Ki) were calculated from the IC50s, probe Kd and probe concentration.

The subject of test [2] is SKM-1 xenograft tumors. The test can be described thus: Growth inhibition of SKM-1 xenograft tumors implanted in mice. The class given is in vivo, female SCID mice. The settings on record: SCID mice. As to the method: The effect of compounds of the examples to inhibit the growth of SKM-1 xenograft tumors implanted in mice was evaluated. A suspension of cancer cells (5×10^6 per 0.1 mL) prepared in RPMI culture medium (Invitrogen, Carlsbad, Calif.) was diluted 1:1 with a solution of Matrigel™ (BD Biosciences, Franklin Lakes, N.J.) and inoculated subcutaneously into the right hind flank of female SCID (Charles River Labs) mice. Randomization into treatment and vehicle control groups (8/group) occurred when the mean tumor volume reached approximately 250 mm^3. Example 3 was formulated in 10% ethanol, 30% PEG 400, 60% Phosol-50PG. Example 34 was formulated as a nanosuspension (2% low viscosity hydroxypropylcellulose polymer/0.2% sodium dodecyl sulfate in water). Administration of compound or vehicle was initiated on the day following randomization and continued for […]. Tumors were measured twice a week throughout the treatment period using a pair of calipers and tumor volumes were calculated according to the formula V=L×W^2/2 (V: volume, mm^3; L: length, mm. W: width, mm). Tumor growth inhibition was calculated based on the mean tumor volume measured on the first day that the mean volume of the vehicle group exceeded 2000 mm^3 according to the formula: % TGI=100−(100×(mean tumor volume of treatment group/mean tumor volume of control group))

Turning to `CN1C(=O)[C@@]2(C[C@H]2c2cn(C)c(=O)c3[nH]c(-c4ccnnc4)cc23)c2ccccc21` (racemic) [Example 56, rac-(1R,2S)-1′-methyl-2-[6-methyl-7-oxo-2-(pyridazin-4-yl)-6,7-dihydro-1H-pyrrolo[2,3-c]pyridin-4-yl]spiro[cyclopropane-1,3′-indol]-2′(1H)-one], the Ki in test [1] is 2.76 µM.
Still for that read-out and setting: with `CN1C(=O)[C@@]2(C[C@@]2(C)c2cn(C)c(=O)c3[nH]c(C(=O)NC4CC4)cc23)c2ccc(OC(F)(F)F)cc21` (racemic) [Example 58, rac-N-cyclopropyl-4-[(1R,2S)-1′,2-dimethyl-2′-oxo-6′-(trifluoromethoxy)-1′,2′-dihydrospiro[cyclopropane-1,3′-indol]-2-yl]-6-methyl-7-oxo-6,7-dihydro-1H-pyrrolo[2,3-c]pyridine-2-carboxamide] the figure was > 13 µM; with `CN1C(=O)[C@]2(C[C@@H]2c2cn(C)c(=O)c3[nH]c(C(=O)O)cc23)c2ccccc21` (single isomer, unassigned) [Example 6], > 13 µM.
In the case of `CN1C(=O)[C@@]2(C[C@H]2c2cn(C)c(=O)c3[nH]c(C(=O)O)cc23)c2ccccc21` (single isomer, unassigned) [Example 7], the Ki in test [1] was > 13 µM.
The same measure, in the same setting: to `CN1C(=O)[C@@]2(C[C@H]2c2cn(C)c(=O)c3[nH]c(C(=O)NC4CC4)cc23)c2cc(F)ccc21` (single isomer, unassigned) [Example 18] belongs > 13 µM.
Consider `Cn1cc([C@H]2C[C@]23C(=O)Nc2ccccc23)c2cc(C(=O)NC3CC3)[nH]c2c1=O` (single isomer, unassigned) [Example 20], for which the Ki in test [1] is 7.34 µM.
`Cn1cc([C@@H]2C[C@@]23C(=O)Nc2ccccc23)c2cc(C(=O)NC3CC3)[nH]c2c1=O` (single isomer, unassigned) [Example 21]: in test [1], the Ki is > 13 µM.
Turning to `CN1C(=O)[C@]2(C[C@@H]2c2cn(C)c(=O)c3[nH]c(C(=O)NC4CC4)cc23)c2ccccc21` [Example 3, N-cyclopropyl-6-methyl-4-[(1S,2R)-1′-methyl-2′-oxo-1′,2′-dihydrospiro[cyclopropane-1,3′-indol]-2-yl]-7-oxo-6,7-dihydro-1H-pyrrolo[2,3-c]pyridine-2-carboxamide], the inhibition constant Ki in test [1] is 3.25 µM. Also, the “% TGI” value worked out at 27% in test [2] (dose 5 mg/kg/d, formulated in 10% ethanol, 30% PEG 400, 60% Phosol-50PG); 33% in test [2] (dose 15 mg/kg/d, formulated in 10% ethanol, 30% PEG 400, 60% Phosol-50PG); 43% in test [2] (dose 45 mg/kg/d, formulated in 10% ethanol, 30% PEG 400, 60% Phosol-50PG); 58% in test [2] (dose 100 mg/kg/d, formulated in 10% ethanol, 30% PEG 400, 60% Phosol-50PG); 52% in test [2] (dose 150 mg/kg/d, formulated in 10% ethanol, 30% PEG 400, 60% Phosol-50PG).
In the case of `CN1C(=O)[C@@]2(C[C@H]2c2cn(C)c(=O)c3[nH]c(C(=O)NC4CC4)cc23)c2ccccc21` [Example 4, N-cyclopropyl-6-methyl-4-[(1R,2S)-1′-methyl-2′-oxo-1′,2′-dihydrospiro[cyclopropane-1,3′-indol]-2-yl]-7-oxo-6,7-dihydro-1H-pyrrolo[2,3-c]pyridine-2-carboxamide], in test [1], the Ki was > 13 µM.
Same read-out and setting: with `CN1C(=O)[C@]2(C[C@@H]2c2cn(C)c(=O)c3[nH]c(C(=O)NC4CC4)cc23)c2cc(F)ccc21` [Example 17, N-cyclopropyl-4-[(1S,2R)-5′-fluoro-′-methyl-2′-oxo-1′,2′-dihydrospiro[cyclopropane-1,3′-indol]-2-yl]-6-methyl-7-oxo-6,7-dihydro-1H-pyrrolo[2,3-c]pyridine-2-carboxamide] the figure was 5.04 µM.
For the compound `Cn1cc([C@H]2C[C@]23C(=O)N(CC(F)(F)F)c2ccccc23)c2cc(C(=O)NC3CC3)[nH]c2c1=O` [Example 24, N-cyclopropyl-6-methyl-7-oxo-4-[(1S,2R)-2′-oxo-′-(2,2,2-trifluoroethyl)-1′,2′-dihydrospiro[cyclopropane-1,3′-indol]-2-yl]-6,7-dihydro-1H-pyrrolo[2,3-c]pyridine-2-carboxamide], the Ki in test [1] is 4.21 µM.
`Cn1cc([C@@H]2C[C@@]23C(=O)N(CC(F)(F)F)c2ccccc23)c2cc(C(=O)NC3CC3)[nH]c2c1=O` [Example 25, N-cyclopropyl-6-methyl-7-oxo-4-[(1R,2S)-2′-oxo-′-(2,2,2-trifluoroethyl)-1′,2′-dihydrospiro[cyclopropane-1,3′-indol]-2-yl]-6,7-dihydro-1H-pyrrolo[2,3-c]pyridine-2-carboxamide]: the Ki in test [1] was > 13 µM.
Consider `CN1C(=O)[C@]2(C[C@@H]2c2cn(C)c(=O)c3[nH]c(-c4cnn(C)c4)cc23)c2ccccc21` [Example 34, (1S,2R)-1′-methyl-2-[6-methyl-2-(1-methyl-1H-pyrazol-4-yl)-7-oxo-6,7-dihydro-1H-pyrrolo[2,3-c]pyridin-4-yl]spiro[cyclopropane-1,3′-indol]-2′(1H)-one], for which the inhibitory constant (Ki) in test [1] is 0.441 µM. For the same compound, the “% TGI” value in test [2] (dose 38 mg/kg/d, formulated as a nanosuspension) is given as 42%; in test [2] (dose 75 mg/kg/d, formulated as a nanosuspension), 74%.
`CN1C(=O)[C@@]2(C[C@H]2c2cn(C)c(=O)c3[nH]c(-c4cnn(C)c4)cc23)c2ccccc21` [Example 35, (1R,2S)-1′-methyl-2-[6-methyl-2-(1-methyl-1H-pyrazol-4-yl)-7-oxo-6,7-dihydro-1H-pyrrolo[2,3-c]pyridin-4-yl]spiro[cyclopropane-1,3′-indol]-2′(1H)-one]: in test [1], the Ki is 1.3 µM.
Still for that read-out and setting: with `CN1C(=O)[C@]2(C[C@@H]2c2cn(C)c(=O)c3[nH]c(-c4cccnc4)cc23)c2ccccc21` [Example 48, (1S,2R)-1′-methyl-2-[6-methyl-7-oxo-2-(pyridin-3-yl)-6,7-dihydro-1H-pyrrolo[2,3-c]pyridin-4-yl]spiro[cyclopropane-1,3′-indol]-2′(1H)-one] the figure was 1.42 µM; with `CN1C(=O)[C@@]2(C[C@H]2c2cn(C)c(=O)c3[nH]c(-c4cccnc4)cc23)c2ccccc21` [Example 49, (1R,2S)-1′-methyl-2-[6-methyl-7-oxo-2-(pyridin-3-yl)-6,7-dihydro-1H-pyrrolo[2,3-c]pyridin-4-yl]spiro[cyclopropane-1,3′-indol]-2′(1H)-one], 4.14 µM; with `CN1C(=O)[C@]2(C[C@@H]2c2cn(C)c(=O)c3[nH]c(-c4ccnc(C(F)(F)F)c4)cc23)c2ccccc21` [Example 52, (1S,2R)-1′-methyl-2-{6-methyl-7-oxo-2-[2-(trifluoromethyl)pyridin-4-yl]-6,7-dihydro-1H-pyrrolo[2,3-c]pyridin-4-yl}spiro[cyclopropane-1,3′-indol]-2′(1H)-one], > 13 µM.
As to `CN1C(=O)[C@@]2(C[C@H]2c2cn(C)c(=O)c3[nH]c(-c4ccnc(C(F)(F)F)c4)cc23)c2ccccc21` [Example 53, (1R,2S)-1′-methyl-2-{6-methyl-7-oxo-2-[2-(trifluoromethyl)pyridin-4-yl]-6,7-dihydro-1H-pyrrolo[2,3-c]pyridin-4-yl}spiro[cyclopropane-1,3′-indol]-2′(1H)-one], the inhibitory constant (Ki) in test [1] is 2.82 µM.

For orientation: Ki means the dissociation constant of the complex between target and ligand, obtained from inhibition or displacement.

Values taken from patent US20210130346A1, “Bromodomain Inhibitors” (AbbVie Inc., priority 2017, published 2021).
